Columns and labels:
[1] = Particle size distribution of the precipitate measured with a Malvern Mastersizer 2000; format: physicochemical; settings: precipitated particles; for D50 of this batch / D90 of this batch: ethanol/water, Malvern Mastersizer 2000
Text: Preferably, the precipitated organic compound is in particulate form and has a D50 of less than 500 nm, more preferably less than 400 nm, even more preferably of less than 300 nm, and in particular less than 200 nm. The D50 can be measured by techniques known in the art, e.g. laser diffraction according to method ISO 13320-1 using e.g. a Malvern Mastersizer 2000 particle size analyser.
The particle size distribution is wide, including many particles of 10 μm edge length or more. […] The D50 of this batch is 14.59 μm. So 50% of all particles have a volume median size which is smaller than 14.59 μm. The D90 of this batch is 36.22 μm.
Particle size distribution was measured with a Malvern Mastersizer 2000. The D50 of this batch is 9.17 μm. The D90 of this batch is 18.72 μm. (FIG. 8)

[2] = Saturation concentration in ethanol; format: physicochemical; settings: 325 K

| SMILES | particle size distribution (shape, in words) [1] | D50 of this batch [1] [μm] | D90 of this batch [1] [μm] | saturation conc. in EtOH [2] [g/L] |
| --- | --- | --- | --- | --- |
| CC(=O)[C@H]1CC[C@H]2[C@@H]3CC=C4C[C@@H](O)CC[C@]4(C)[C@H]3CC[C@]12C [Comparative Example 1, pregnenolone] | wide | 14.59 | 36.22 |  |
| CC(=O)[C@H]1CC[C@H]2[C@@H]3CC=C4C[C@@H](O)CC[C@]4(C)[C@H]3CC[C@]12C [Comparative Example 3, pregnenolone] | narrower particle size distribution than Comparative Example 2 | 9.17 | 18.72 |  |
| CC(=O)[C@H]1CC[C@H]2[C@@H]3CC=C4C[C@@H](O)CC[C@]4(C)[C@H]3CC[C@]12C [Inventive Example 1, pregnenolone] | narrow | 9.17 | 18.72 |  |
| CC(=O)[C@H]1CC[C@H]2[C@@H]3CC=C4C[C@@H](O)CC[C@]4(C)[C@H]3CC[C@]12C [pregnenolone] |  |  |  | 34 |
